From patent US7205382B2, “Peptides, the production and use thereof for binding immunoglobulins” (Fresenius Medical Care Affina GmbH, priority 2000, dated 2007)
Bridge positions count the residues as written; N and C are the ends. Ends that are not written are not given here. cellulose = not defined here; βAla = NCCC(=O)O

Key:
Format in all cases: binding
Design in all cases: key: No binding of immunoglobulin for the defined peptide variant, detection negative: 0; Binding of immunoglobulin for the defined peptide variant, detection positive: +
[1] = system: immunoglobulins in human plasma; assay: Cellulose-immobilized 13-mer peptide variants incubated with human plasma, anti-human IgG-AP detection; details: human plasma as sample, diluted 1:10,000 in blocking buffer, 3 h room temperature
Method in brief: (§1)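 Read-out was colorimetric NBT/BCIP staining (developing buffer pH 9.5) after alkaline phosphatase-conjugated anti-human IgG at 1.2 μg/ml. Before this, the immobilized peptides had been incubated 3 h at room temperature with 1 μg/ml IgG-Fc, 1:10,000 diluted serum, or albumin-containing blocking buffer without addition.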

serum albumin = assay: Cellulose-immobilized 13-mer peptide variants incubated with serum albumin (negative control), anti-human IgG-AP detection; details: blocking buffer without addition, 3 h room temperature
Method in brief: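 Peptides on cellulose via a (βA)(βA) spacer were blocked in T-TBS (pH 8.0) with 5% saccharose and 4% BSA, then exposed for 3 h at room temperature to IgG-Fc (1 μg/ml), serum diluted 1:10,000, or blocking buffer alone. Bound IgG was detected with AP-anti-human IgG (1.2 μg/ml) and NBT/BCIP colour development.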

human IgG-Fc = assay: Cellulose-immobilized 13-mer peptide variants incubated with human IgG-Fc, anti-human IgG-AP detection; details: IgG-Fc 1 μg/ml in blocking buffer, 3 h room temperature
Method in brief: as §1

Row | Result for incubation with human plasma (immunoglobulin binding detection) [1] | Result for incubation with serum albumin (immunoglobulin binding detection) (serum albumin) | Result for incubation with human IgG-Fc (immunoglobulin binding detection) (human IgG-Fc) | Substance
1 | 0 | 0 | 0 | 05D: cellulose-bound 13-mer variant DCAWDLGELVWCT-(βA)(βA) (disulfide 2-12 (inferred); not fully specified (N-terminus, C-terminus); printed as DCAWDLGELVWCT-(βA)(βA); also: cellulose-bound)
2 | 0 | 0 | 0 | 05L: cellulose-bound 13-mer variant DCAWLLGELVWCT-(βA)(βA) (disulfide 2-12 (inferred); not fully specified (N-terminus, C-terminus); printed as DCAWLLGELVWCT-(βA)(βA); also: cellulose-bound)
3 | 0 | 0 | 0 | 03V: cellulose-bound 13-mer variant DCVWHLGELVWCT-(βA)(βA) (DCVWHLGELVWCT-{βAla-βAla-cellulose}; disulfide 2-12 (inferred); reading uncertain; also: printed as DCVWHLGELVWCT-(βA)(βA))
4 | + | 0 | + | 08K: cellulose-bound 13-mer variant DCAWHLGKLVWCT-(βA)(βA) (DCAWHLGKLVWCT-{βAla-βAla-cellulose}; disulfide 2-12 (inferred); not fully specified (N-terminus); printed as DCAWHLGKLVWCT-(βA)(βA); reading uncertain)
5 | 0 | 0 | 0 | 07P: cellulose-bound 13-mer variant DCAWHLPELVWCT-(βA)(βA) (DCAWHLPELVWCT-{βAla-βAla-cellulose}; disulfide 2-12 (inferred); not fully specified (N-terminus); printed as DCAWHLPELVWCT-(βA)(βA); reading uncertain)
6 | 0 | 0 | 0 | 05Q: cellulose-bound 13-mer variant DCAWQLGELVWCT-(βA)(βA) (disulfide 2-12 (inferred); not fully specified (N-terminus, C-terminus); printed as DCAWQLGELVWCT-(βA)(βA); also: cellulose-bound)
7 | 0 | 0 | 0 | 05S: cellulose-bound 13-mer variant DCAWSLGELVWCT-(βA)(βA) (disulfide 2-12 (inferred); not fully specified (N-terminus, C-terminus); printed as DCAWSLGELVWCT-(βA)(βA); also: cellulose-bound)
8 | 0 | 0 | 0 | 09Y: cellulose-bound 13-mer variant DCAWHLGEYVWCT-(βA)(βA) (DCAWHLGEYVWCT-{βAla-βAla-cellulose}; disulfide 2-12 (inferred); reading uncertain; also: printed as DCAWHLGEYVWCT-(βA)(βA))
9 | 0 | 0 | 0 | 11M: cellulose-bound 13-mer variant DCAWHLGELVMCT-(βA)(βA)
